Results published in patent publication US20170127677A1, “Formulation of clomazone having reduced volatility” (BASF SE, priority 2014, published 2017).

Assay: Volatility of clomazone from spray solution: glass tube at 25° C. with air suction, loss determined by GC
Format: physicochemical
Conditions: 24 h; for reduction of volatility of Clomazone by compound (B): Test experiment 5, clomazone WP 100 g/ha, component B 335 g/ha
Method: However, a preferred method for determining the volatility of the compounds contained in the compositions according to the present invention is carried out as follows: Glass tubes (internal diameter 23 mm) are immersed in a water bath at 25° C. In the bottom of each of the glass tubes 100 μl of spray solution (component A and B diluted in water at the concentration that a farmer would typically spray) are applied with a pipette. A tube is inserted in the glass tube. The ending of the inserted tube stays 25 mm above the bottom of the glass tube (i.e. the test sample). Along the inserted tube, the air contained in each individual glass tube is constantly suctioned at 250 L/h for the whole system. All glass tubes are separated from the lid by spacers which ensure the inlet of fresh air to the glass tubes. After short time the test sample is evaporated. The system is stopped according to a defined sampling period, preferably after 24 hours. The glass tubes are taken out and washed with THF. The washing solution is analyzed by GC for the compound of interest, e.g. clomazone. The loss of compound is calculated in % of the total amount of compound applied in the initial 100 μl sample. The reference test samples for the quantification of the initial applied Clomazone contain also THF. Each value is generated from 3 to 4 independent measurements. This method allows determining the relative volatility of a certain compound depending on the additional compounds present in a certain composition.
Non-encapsulated Clomazone (as WP formulation) was prepared at 100 g/ha with 200 L water/ha. Paraffinic oil, rapeseed oil methyl ester and the aromatic solvent were added at 335 g/ha, while Dimethenamid was added at 500 g/ha. For the solvents, an appropriate emulsifier system was added. The sample size was 100 μl. The volatility test was carried out at 25° C. and the operating time was 24 h.
Solvents typically used in crop protection agents were tested for comparative purposes. As comparison dimethenamid (dimethenamid P) was also tested, but differently from example 1, the test sample solution was prepared at 335 g/ha.CE3 was included again. Two controls were included in the experiment. For the solvents, an appropriate emulsifier system was added. The volatility test was carried out at 25° C., the operating time was 24 h. The sample size was 100 μl.
Various fatty acid amides were tested as additional components in herbicidal compositions with respect to the question if volatility of clomazone in such compositions is affected. For the solvents, an appropriate emulsifier system was added. The volatility test was carried out at 25° C. the operating time was 24 h. The sample size was 100 μl. […]

Row | SMILES | reduction of volatility of Clomazone by compound (B) | effect on volatility of clomazone in the composition (Test experiment 1, clomazone WP 100 g/ha, dimethenamid 500 g/ha, solvents 335 g/ha) | effect on volatility of clomazone in herbicidal compositions (Test experiment 2, clomazone 100 g/ha, dimethenamid or solvent 335 g/ha)
1 | CCc1cccc(C)c1N(C(=O)CCl)C(C)COC (racemic) [Metolachlor, (RS)-2-ethyl-6-methyl-N-(1′-methyl-2′-methoxyethyl)-chloracetanilid] | support the claimed reduction of volatility of Clomazone |  | 
2 | COCC(C)N(C(=O)CCl)c1c(C)csc1C (stereo not shown) [Dimethenamid, R,S-2-Chloro-N-(2,4-dimethyl-3-thienyl)-N-(2-methoxy-1-methylethyl)acetamide] |  | significantly reduces the volatility of clomazone | significantly reduce the volatility of clomazone
3 | CCC(CC)Nc1c([N+](=O)[O-])cc(C)c(C)c1[N+](=O)[O-] [Pendimethalin, N-(1-ethylpropyl)-3,4-dimethyl-2,6-dinitrophenylamine] | support the claimed reduction of volatility of Clomazone |  | 
